≈ marks a conversion by molar mass, not a printed value.

Holding throughout (type): functional
One experiment deals with Enterococcus faecium. The experiment in a line: Minimum inhibitory concentration against vancomycin resistant Enterococcus faecium (VRE).
Experiment [1] concerns Staphylococcus aureus. The experiment in a line: Minimum inhibitory concentration against methicillin resistant staphylococcus aureus (MRSA).
Experiment [2] has as its system Staphylococcus aureus. The experiment is described as follows: The compound was evaluated in vitro for minimum inhibitory concentration against staphylococcus aureus HP-5827.
In experiment [3] the test system is Staphylococcus aureus. The experiment is described as follows: The compound was evaluated in vitro for minimum inhibitory concentration against staphylococcus aureus HP-5836.

As a reminder, the MIC is the lowest concentration found to suppress growth. Higher therefore signals weaker potency. In the case of `Clc1ccc2ccc(-c3c[nH]c4ccc(Br)cc34)nc2c1`, the minimum inhibitory concentration (MIC) is more than 25 µg/mL in the experiment with Enterococcus faecium and 0.6 µg/mL (≈ 1.68 µM) in the experiment on Staphylococcus aureus [1].
The matching figures for `NCCNC(=O)c1cc(-c2c[nH]c3ccc(Br)cc23)nc2ccc(Cl)cc12.O=C(O)C(F)(F)F`: 3.13 µg/mL and 1.56 µg/mL.
Taken in the same sequence, the figures for `Clc1ccc2c(Cl)cc(-c3c[nH]c4ccc(Br)cc34)nc2c1` were 3.13 µg/mL (≈ 7.98 µM) and less than 0.39 µg/mL.
The matching figures for `Clc1ccc2nc(-c3c[nH]c4ccccc34)ccc2c1`: more than 25 µg/mL and 5 µg/mL (≈ 17.9 µM).
Take `Oc1ccc2[nH]cc(-c3ccc4cc(Cl)ccc4n3)c2c1`: the values for the minimum inhibitory concentration (MIC) against Enterococcus faecium and with Staphylococcus aureus [1] were more than 25 µg/mL and 12.5 µg/mL (≈ 42.4 µM), respectively.
The matching figures for `Clc1ccc2nc(-c3c[nH]c4c(Cl)cccc34)ccc2c1`: more than 25 µg/mL and more than 25 µg/mL.
The matching figures for `OCc1cc(-c2c[nH]c3ccc(Br)cc23)nc2cc(Cl)ccc12`: 2.5 µg/mL (≈ 6.45 µM) and 0.31 µg/mL (≈ 0.8 µM).
As for `Clc1ccc2nc(-c3c[nH]c4ccc(Cl)cc34)ccc2c1`, the minimal inhibitory concentration (MIC) in the experiment on Enterococcus faecium was more than 25 µg/mL; against Staphylococcus aureus [1] it was 0.78 µg/mL (≈ 2.49 µM).
As for `NCCNC(=O)c1cc(-c2c[nH]c3ccc(Br)cc23)nc2c(Cl)cccc12.O=C(O)C(F)(F)F`, the MIC with Enterococcus faecium was found to be 3.13 µg/mL; against Staphylococcus aureus [1], 1.56 µg/mL.
Taken in the same sequence, the figures for `O=C(Oc1ccc2[nH]cc(-c3ccc4cc(Cl)ccc4n3)c2c1)c1ccccc1` were more than 25 µg/mL and 1.56 µg/mL (≈ 3.91 µM).
Taken in the same sequence, the figures for `NCCNC(=O)c1cc(-c2c[nH]c3ccc(Br)cc23)nc2cc(Cl)cc(Cl)c12.O=C(O)C(F)(F)F` were 1.56 µg/mL and 0.78 µg/mL.
On to `NCCNC(=O)c1cc(-c2c[nH]c3ccc(Br)cc23)nc2cc(Cl)c(C#CCN3CCCCC3)cc12.O=C(O)C(F)(F)F`, for which the minimal inhibitory concentration (MIC) stood at 1.56 µg/mL in the experiment with Staphylococcus aureus [2], 6.25 µg/mL with Enterococcus faecium, 3.13 µg/mL against Staphylococcus aureus [3] and 3.13 µg/mL against Staphylococcus aureus [1].
In the case of `NCc1cc(-c2c[nH]c3ccc(Br)cc23)nc2cc(Cl)ccc12.O=C(O)C(F)(F)F`, the minimum inhibitory concentration (MIC) amounted to 0.39 µg/mL in the experiment with Staphylococcus aureus [2], 1.56 µg/mL in the experiment on Enterococcus faecium, 0.39 µg/mL in the experiment on Staphylococcus aureus [3] and 0.78 µg/mL in the experiment with Staphylococcus aureus [1].
Regarding `NCCNC(=O)c1cc(-c2c[nH]c3ccc(Br)cc23)nc2cc3c(cc12)OCO3.O=C(O)C(F)(F)F`, the MIC in the experiment on Staphylococcus aureus [1] is 12.5 µg/mL.
In the case of `Clc1ccc2nc(-c3c[nH]c4ccc(Br)cc34)ccc2c1`, the results for the minimum inhibitory concentration (MIC) against Enterococcus faecium and against Staphylococcus aureus [1] were more than 25 µg/mL and 0.62 µg/mL (≈ 1.73 µM), respectively.
Turning to `COc1ccc2[nH]cc(-c3ccc4cc(Cl)ccc4n3)c2c1`, the minimum inhibitory concentration (MIC) in the experiment on Enterococcus faecium and against Staphylococcus aureus [1] was more than 25 µg/mL in each case.
In the case of `NCCNC(=O)c1cc(-c2c[nH]c3ccc(Br)cc23)nc2ccccc12.O=C(O)C(F)(F)F`, the values for the minimum inhibitory concentration (MIC) in the experiment with Enterococcus faecium and with Staphylococcus aureus [1] were 25 µg/mL and 12.5 µg/mL, respectively.
Taken in the same sequence, the figures for `NCCNC(=O)c1cc(-c2c[nH]c3ccc(Br)cc23)nc2c(Cl)c(Cl)ccc12.O=C(O)C(F)(F)F` were 0.78 µg/mL and 0.78 µg/mL.
Taken in the same sequence, the figures for `Fc1ccc2[nH]cc(-c3ccc4cc(Cl)ccc4n3)c2c1` were 12.5 µg/mL (≈ 42.1 µM) and 0.78 µg/mL (≈ 2.63 µM).
The matching figures for `Fc1ccc2c(-c3ccc4cc(Cl)ccc4n3)c[nH]c2c1`: 6.25 µg/mL (≈ 21.1 µM) and 1.56 µg/mL (≈ 5.26 µM).
As for `NCCNC(=O)c1cc(-c2c[nH]c3ccc(Br)cc23)nc2cc(Cl)ccc12.O=C(O)C(F)(F)F`, the minimal inhibitory concentration (MIC) with Staphylococcus aureus [2] stood at 0.78 µg/mL; in the experiment with Enterococcus faecium, 1.56 µg/mL; against Staphylococcus aureus [3], 0.39 µg/mL; against Staphylococcus aureus [1], 0.78 µg/mL.
`O=C(O)c1cc(-c2c[nH]c3ccc(Br)cc23)nc2cc(Cl)ccc12`: the MIC against Enterococcus faecium and against Staphylococcus aureus [1] was 25 µg/mL (≈ 62.2 µM) each time.
For `N#Cc1ccc2[nH]cc(-c3ccc4cc(Cl)ccc4n3)c2c1`, the MIC against Enterococcus faecium and against Staphylococcus aureus [1] was more than 25 µg/mL in each case.
As to `NCCNC(=O)c1cc(-c2c[nH]c3ccc(Br)cc23)nc2c(F)cccc12.O=C(O)C(F)(F)F`, the MIC was 12.5 µg/mL in the experiment on Enterococcus faecium and 6.25 µg/mL in the experiment on Staphylococcus aureus [1].
As for `NCCNC(=O)c1cc(-c2c[nH]c3ccc(Br)cc23)nc2cc(F)ccc12.O=C(O)C(F)(F)F`, the minimal inhibitory concentration (MIC) in the experiment on Enterococcus faecium and against Staphylococcus aureus [1] was 3.13 µg/mL throughout.
As to `Fc1cccc2[nH]cc(-c3ccc4cc(Cl)ccc4n3)c12`, the MIC in the experiment with Enterococcus faecium and in the experiment on Staphylococcus aureus [1] was more than 25 µg/mL in each case.

(Values after ChEMBL document CHEMBL1133071, “Potent in vitro methicillin-resistant Staphylococcus aureus activity of 2-(1H-indol-3-yl)quinoline derivatives” (2000).)
